pEC50, pIC50: −log10 of the molar value. The source made the active and inactive calls.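 How the source made its calls: active means compounds giving half or more protection of infected cells from virus-caused growth loss, again on retest; inactive means the rest.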 Where a SMILES comes first, the peptide text is derived from it.
Tested on: CEM cells HIV-1 protection, formazan growth assay
Assay: NCI AIDS Antiviral Assay
Settings: for pIC50: measured here: growth of uninfected CEM cells
Procedure, shortened: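 Soluble formazan readout of cell growth; CEM cells ± HIV-1; 5 drug concs. ≥50% protection → retest; ≥50% again = moderately active; reproducible 100% = confirmed active.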

Row | SMILES | pEC50 | pIC50 | outcome
1 | Oc1ccc(/C=C/c2cc(O)cc3c2[C@@H](c2cc(O)cc(O)c2)C(c2ccc(O)cc2)O3)cc1 (some centres undefined) | < 4.50 | 4.78 | –
2 | O=C1NC2=C(CCCC/C2=N\O)C12CCCCC2 | – | – | inactive
3 | CCOc1c(OC)cc(CNNc2nccs2)cc1OC | < 3.70 | 4.05 | –
4 | COP1(=S)OCC(C(C)(C)C)CO1 (centres undefined) | < 4.24 | < 4.24 | –
5 | CN(C)C(=O)c1nc(CNC(=O)CN)n(-c2ccc(Cl)cc2C(=O)c2ccccc2)n1 | < 3.70 | < 3.70 | –
6 | CCC1=CC2CN3CCc4c([nH]c5ccccc45)[C@@](C(=O)OC)(C2)[C@@H]13 | – | – | inactive
7 | COc1ccc2c(c1)CCCN1CCc3ccccc3C21 (centres undefined) | < 3.70 | 3.96 | –
8 | O=C1C(Cl)N(c2cccc([N+](=O)[O-])c2)C1c1c[nH]c2ccccc12 (centres undefined) | < 3.98 | 5.30 | –
9 | CCN1CN(c2ccccc2)C2(CCN(CC(CC3OCCO3)c3ccc(F)cc3)CC2)C1=O (centres undefined) | < 3.70 | 5.14 | –
10 | O=P(O)(O)OC1C(OP(=O)(O)O)C(OP(=O)(O)O)C(OP(=O)(O)O)C(OP(=O)(O)O)C1OP(=O)(O)O.[Zn+2] (centres undefined) | < 4.00 | < 4.00 | –
11 | OCc1ccc2[n+](c1)CCC1c3ccccc3NC21 (centres undefined) | < 4.11 | < 4.11 | –
12 | Nc1nc2c(c(=O)[nH]1)C(c1ccc(Cl)cc1)C=C(c1ccccc1)N2 (centres undefined) | < 3.70 | 4.85 | –
13 | CC(CC[C@@H](C)C1CCC2[C@@H]3CC(O)C4CC(O)[C@@H](O)C[C@]4(C)C3CC[C@@]21C)C(C)(C)C (some centres undefined) | – | – | inactive
14 | C(=C(c1ccccc1)c1ccccc1)=C(c1ccccc1)c1ccccc1 | < 4.54 | < 4.54 | –
15 | Nc1ccccc1S(=O)(=O)N(CC(=O)O)c1ccccc1 | – | – | inactive
16 | OCCN(CCO)c1ccc2ccc(N(CCO)CCO)nc2n1 | < 3.70 | 4.59 | –
17 | O=C(/C=C/c1ccccc1O)c1ccc([N+](=O)[O-])cc1 | < 4.02 | 4.27 | –
18 | OCCOCC#CCOCCO | < 3.70 | < 3.70 | –
19 | COC(=O)C(=O)C(C(=O)OC)C(=O)C(=O)Nc1cc(Cl)c(Cl)cc1Cl (centres undefined) | < 4.76 | < 4.76 | –
20 | CCOC(=O)c1c(-c2cccc3ccccc23)c(C#N)c(=S)n(C2OC(COC(C)=O)C(OC(C)=O)C(OC(C)=O)C2OC(C)=O)c1C (centres undefined) | < 3.70 | 5.11 | –
21 | COC(=O)/C(=C/c1ccc(OC)cc1)C(C(=O)O)=C(C)C | < 3.06 | 4.95 | –

Row | SMILES | pEC50 | pIC50 | outcome
22 | O=C1C(Cl)N(c2ccc(Cl)cc2)C1c1c[nH]c2ccccc12 (centres undefined) | < 3.69 | 5.29 | –
23 | O=C(O/N=C1/CCC/C1=C\c1ccccc1)c1ccc(Cl)c(Cl)c1 | – | – | inactive
24 | O=C1C=CC=C/C1=C1\N=C(c2ccccc2OCC(=O)c2ccccc2)SS1 | < 4.30 | 5.37 | –
25 | N#C/C=C\c1ccc(F)cc1 | < 3.61 | < 3.61 | –
26 | C=CCc1cc(OC)c2c(c1)C(O)CC(c1ccccc1)O2 (centres undefined) | < 3.77 | < 3.77 | –
27 | CC1=CC2C(C=C1)S(=O)(=O)N1CC21c1ccccc1 (centres undefined) | – | – | inactive
28 | CC[C@](C)(O)C(=O)O[C@H]1C(=O)O[C@@H]2C[C@H]3C(C)=CC(=O)[C@@H](O)[C@]3(C)[C@H]3[C@@]4(O)OC[C@]32[C@@H]1[C@@H](C)[C@H]4O | – | – | inactive
29 | O=C(O)c1ccc([N+](=O)[O-])cc1S(=O)(=O)O | < 3.70 | < 3.70 | –
30 | C=CCCCC1CCCNC1=O (centres undefined) | < 2.83 | 2.94 | –
31 | CC1CCC2C(C(=O)O[C@H]3C4C=CO[C@@H](OC5OC(CO)C(O)C(O)C5O)C4[C@@]4(CO)O[C@@H]34)=CO[C@@H](OC3OC(CO)C(O)C(O)C3O)C12 (some centres undefined) | < 3.70 | < 3.70 | –
32 | CC(=O)OCN(C)c1nc(N(C)COC(C)=O)nc(N(C)COC(C)=O)n1 | < 4.30 | < 4.30 | –
33 | CC1CN=C(N(C(=O)Nc2ccc(Cl)cc2)c2cccc(Cl)c2)S1 (centres undefined) | – | – | inactive
34 | N#Cc1ccc(Oc2ccccc2)cc1C#N | < 4.34 | < 4.34 | –
35 | COc1ccc(C2NCCc3c2[nH]c2ccccc32)cc1 (centres undefined) | – | – | inactive
36 | Nc1ncnc2c1ncn2C1CCCCC(O)C1 (centres undefined) | – | – | inactive
37 | CCCSc1nn2cc(NC(=O)OC)nc2s1 | < 3.70 | 5.64 | –
38 | CC(=O)[C-](C)C(C)=O.CC(=O)[C-](C)C(C)=O.NCCNCCNC(=O)c1cccc2nc3ccccc3nc12.[Cl-].[Co+3] | < 3.82 | 4.50 | –
39 | CCCCCCCCCCCCCCCCCCNC(=O)OCC(CNS(=O)(=O)CCC[n+]1cccc2ccccc21)COC (centres undefined) | < 3.70 | 6.17 | –
40 | O=C1NC(=O)[C@@]2(CC[C@@H](O)C2)c2ccncc21 | < 3.25 | 3.35 | –
41 | CCC(C)[C@@H]1NC(=O)[C@@H]2CCCN2C(=O)C(CC(O)CCl)OC(=O)CCNC(=O)[C@H](C)N(C)C(=O)[C@H](C(C)C)N(C)C1=O (some centres undefined) (HELM PEPTIDE1{[CCC(C)[C@H](N[*:1])C(=O)[*:2]].[meV].[meA].[bAla].[O=C(C(CC(O)CCl)O[*:1])[*:2]].P}$PEPTIDE1,PEPTIDE1,1:R1-6:R2$$$V2.0) | < 5.70 | 6.96 | –
42 | N/C(=N/N=C/C1CCCCC1)NO | – | – | inactive

Row | SMILES | pEC50 | pIC50 | outcome
43 | CCOc1ccc(C2Oc3c(cccc3OC)C=C2[N+](=O)[O-])cc1OCC (centres undefined) | < 3.70 | 5.52 | –
44 | CC12CCC(C(=Nc3cc(C(F)(F)F)cc(C(F)(F)F)c3)C1=O)C2(C)C (centres undefined) | < 3.70 | 4.43 | –
45 | CC(C)(C)C1=CC(=C(c2ccccc2)c2ccccc2)C=C(C(C)(C)C)C1=O | < 4.32 | < 4.32 | –
46 | CCCCCC=C1c2ccccc2C=Cc2ccccc21 | < 3.70 | 4.14 | –
47 | CC(C)(C)OC(=O)N1CCCCC(CCCC#Cc2ccccc2)C1=O (centres undefined) | < 4.42 | < 4.42 | –
48 | O=C1c2ccccc2-c2nnc3c(c21)-c1ccccc1C3 | < 3.70 | 4.03 | –
49 | CCCC(C)(COC(N)=O)COC(=O)NC1CC1 (centres undefined) | < 3.70 | < 3.70 | –
50 | Cc1nn(C)c2nc3ccc(Cl)cc3c(-c3ccccc3)c12 | < 3.70 | < 3.70 | –
51 | CCC12C=CCN(C1)C(=O)Cc1c([nH]c3ccccc13)/C(=N/NC(=O)OC)C2 (centres undefined) | < 4.28 | < 4.28 | –
52 | O=C1c2ccccc2C(=O)N1C/C(Cl)=C/Cl | < 3.70 | < 3.70 | –
53 | COC1CC(OC2C(C)OC(OC3C(C)OC(OC4C(C)OC(O[C@H]5CC[C@@]6(C)C(=CC[C@]7(O)[C@@H]6C[C@@H](OC(=O)/C=C(\C)C(C)C)[C@@]6(C)[C@]7(O)CC[C@@]6(O)C(C)=O)C5)CC4OC)CC3OC)CC2OC)OC(C)C1O (some centres undefined) | < 3.70 | 4.56 | –
54 | CC1(C)CC(=O)C(C=NC(=S)C(N)=S)=C(O)C1 | < 3.70 | 4.43 | –
55 | CN(C)[C@@H]1C(=O)C(C(N)=O)=C(O)[C@@]2(O)C(=O)C3=C(O)c4c(O)ccc(Cl)c4[C@@](C)(O)[C@H]3C[C@@H]12 | < 4.85 | < 4.85 | –
56 | C/C(=C\O[Si](C)(C)C)c1ccccc1 | < 3.70 | < 3.70 | –
57 | O=S(=O)(C1=CC(S(=O)(=O)c2ccccc2)COC1)c1ccccc1 (centres undefined) | – | – | inactive
58 | CC(=O)N(C)CCc1c[nH]c2ccccc12 | < 3.70 | < 3.70 | –
59 | CN(C)P1(=O)OCC2CCC[C@@H]2O1 (some centres undefined) | – | – | inactive
60 | N#CC(Nc1ccccc1)c1ccc(C(C#N)Nc2ccccc2)cc1 (centres undefined) | < 3.70 | 5.02 | –
61 | CN(C)CCCN1C(=O)N(CCCN(C)C)c2c3cc(O)ccc3nc3c([N+](=O)[O-])ccc1c23 | < 3.70 | 6.01 | –
62 | O=C(O)c1cc(Cc2cc(C(=O)O)c(O)c(C(=O)c3ccc(O)c(C(=O)O)c3)c2)ccc1O | 3.27 | 3.08 | –
63 | Cc1cccc(C(C)C)c1NC(=O)CC1Sc2ccccc2NC1=O (centres undefined) | < 4.69 | – | –

Row | SMILES | pEC50 | pIC50 | outcome
64 | COc1ccc(-c2onc(-c3ccc([N+](=O)[O-])cc3)c2C2=NCCN2)cc1 | < 4.89 | < 4.89 | –
65 | O=C(CCC1CCCCN1)Nc1ccc2c(c1)C(=O)c1ccc(NC(=O)CCN3CCCCC3)cc1C2=O (centres undefined) | – | – | inactive
66 | COc1ccc2nc3cc(Cl)ccc3c(Sc3ccc([N+](=O)[O-])cc3C)c2c1 | < 4.90 | < 4.90 | –
67 | Nc1nc(N)c(CCCCc2ccccc2)c(/C=C/c2ccc([N+](=O)[O-])cc2)n1 | – | – | inactive
68 | COC1/C=C/OC2(C)Oc3c(C)c(O)c4c(O)c(cc(OCC(=O)N5CC(C)(C)C5)c4c3C2=O)NC(=O)/C(C)=C/C=CC(C)C(O)C(C)C(O)C(C)C(OC(C)=O)C1C (centres undefined) | < 3.70 | 4.57 | –
69 | CCC[CH2][Sn]1([CH2]CCC)[O]C(=O)c2cccnc2[S]1 | < 4.47 | 6.20 | –
70 | COC(=O)/C=C/c1cc(OC)c2c(c1)[C@H](C(=O)OC)[C@@H](c1ccc(O)c(OC)c1)O2 | < 4.70 | 5.99 | –
71 | COC(=O)c1ccccc1C#CCCCOS(C)(=O)=O | < 3.70 | < 3.70 | –
72 | CCCCCCc1nn2c(-c3ccc(C)cc3)nnc2s1 | < 3.70 | < 3.70 | –
73 | O=C(NC(=O)c1cn(CCN(CCO)C(=O)NCCCCCCNC(=O)N(CCO)CCn2cc(C(=O)NC(=O)OCc3ccccc3)c(=O)[nH]c2=O)c(=O)[nH]c1=O)OCc1ccccc1 | – | – | inactive
74 | CC(=O)OCC1OC(Nc2[nH]c(=O)[nH]c(=O)c2N=O)C(OC(C)=O)C(OC(C)=O)C1OC(C)=O (centres undefined) | < 3.70 | < 3.70 | –
75 | N=c1c2ncn3c(=O)n(-c4ccccc4)c(nc(=O)n1-c1ccccc1)c23 | < 4.84 | 5.08 | –
76 | O=c1[nH]c2cc3[nH]c(=O)c(=O)[nH]c3cc2[nH]c1=O | < 3.70 | < 3.70 | –
77 | O=c1[nH]nc2ccccc2c1Cc1ccccc1 | < 3.82 | < 3.82 | –
78 | O=C(O)c1ccccc1CC1Cc2ccc3c(c2C1=O)CCC3 (centres undefined) | < 3.70 | 3.95 | –
79 | CCOC(=O)C1=CNC(C(=O)OCC)C1c1cccn1-c1ccccc1 (centres undefined) | < 3.70 | 4.44 | –
80 | O=c1cc(N2CCN(c3cc(=O)n4ccccc4n3)CC2)oc2ccccc12 | < 3.70 | < 3.70 | –
81 | Cn1c(=O)c2[nH]c(Nc3ccccc3)nc2n(C)c1=O | < 3.70 | 3.92 | –
82 | CC(NNC(=S)N1CCCCCC1)c1cccnn1 (centres undefined) | < 3.70 | 6.45 | –
83 | CN=c1ccc2cc3ccc(NC)cc3oc-2c1 | < 3.70 | 4.43 | –

From PubChem BioAssay AID179 (DTP/NCI, 2004)
